Patent US20210387966A1, “2-AMINO-N-HETEROARYL-NICOTINAMIDES AS NAV1.8 INHIBITORS” (Merck Sharp & Dohme Corp., priority 2018, published 2021)

Molecular target: T1, human Nav1.8 channels (Homo sapiens, UniProt Q9Y5Y9)
T1 construct: expressed in transfected cells
Assay: Nav1.8 Qube automated patch-clamp assay
Format: cell-based
Conditions: human Nav1.8 stably expressed in HEK 293 cells; whole-cell voltage clamp, room temperature; resting or inactivated state not specified; read-out: IC50 values (nM) for Examples in the Nav1.8 Qube Assay
Experimental: Compounds were tested on human Nav1.8 and Nav1.5 channels stably expressed in human embryo kidney (HEK) 293 cells. Sodium current measurements on Qube® were conducted as follows: automated 384-well patch-clamp assays on the Qube® platform (Sophion Biosciences) were used to measure the inhibition of sodium flow through human Nav1.8 and Nav1.5 channels. Whole-cell voltage-clamp recordings were performed in QChips® (Sophion Biosciences) at room temperature. Nav1.8 current measurements on Qube® were obtained as follows: Nav1.8 currents were elicited with a 10 second 1 Hertz (Hz) pulse train from a holding potential of −90 millivolts (mV), delivered to the cells once per minute in the control condition (DMSO only) and after compound addition. The 1 hertz pulse train stimulation consisted of ten test pulses to 10 millivolt (mV) for 20 milliseconds (ms), each of which was followed by a 980 millisecond repolarization to −67 millivolts. At the end of the 10 second pulse train stimulation, a second hyperpolarization step to −100 millivolt (mV) was used to recover Nav1.8 from fast inactivation. The peak currents elicited by the 1st and 10th test pulses were used to determine IC50 values for resting inhibition and inactivated state inhibition. Nav1.5 current measurements on Qube® were obtained as follows: Nav1.5 currents were elicited with a 20 second 3 Hertz pulse train in the control condition (DMSO only) and after compound addition. The pulse train consisted of sixty 20 millisecond test pulses to 0 millivolt from a holding potential of −80 millivolt (mV). The average peak currents elicited by the last 3 test pulses were used to determine IC50 values for Nav1.5 inhibition.
The following buffers were used for the Qube® recordings: External buffer for Nav1.8 Qube® recording: 150 NaCl, 2 CaCl2, 5 KCl, 1 Mg Cl2, 10 HEPES, 12 Dextrose; External buffer for Qube® Nav1.5 recording: 120 N-Methyl-D-Glucamine, 40 NaCl, 1 KCl, 2.7 CaCl2, 5 HEPES, 0.5 MgCl2: and Internal buffer for Qube® recording: 120 CsF, 30 CsCl, 10 EGTA, 5 HEPES, 5 NaF, 2 MgCl2.
For all Qube® experiments offline analysis was used to determine percent inhibition as a function of drug concentration. IC50 values were determined by fitting to the Hill equation.

T1 sequence (Q9Y5Y9 whole entry): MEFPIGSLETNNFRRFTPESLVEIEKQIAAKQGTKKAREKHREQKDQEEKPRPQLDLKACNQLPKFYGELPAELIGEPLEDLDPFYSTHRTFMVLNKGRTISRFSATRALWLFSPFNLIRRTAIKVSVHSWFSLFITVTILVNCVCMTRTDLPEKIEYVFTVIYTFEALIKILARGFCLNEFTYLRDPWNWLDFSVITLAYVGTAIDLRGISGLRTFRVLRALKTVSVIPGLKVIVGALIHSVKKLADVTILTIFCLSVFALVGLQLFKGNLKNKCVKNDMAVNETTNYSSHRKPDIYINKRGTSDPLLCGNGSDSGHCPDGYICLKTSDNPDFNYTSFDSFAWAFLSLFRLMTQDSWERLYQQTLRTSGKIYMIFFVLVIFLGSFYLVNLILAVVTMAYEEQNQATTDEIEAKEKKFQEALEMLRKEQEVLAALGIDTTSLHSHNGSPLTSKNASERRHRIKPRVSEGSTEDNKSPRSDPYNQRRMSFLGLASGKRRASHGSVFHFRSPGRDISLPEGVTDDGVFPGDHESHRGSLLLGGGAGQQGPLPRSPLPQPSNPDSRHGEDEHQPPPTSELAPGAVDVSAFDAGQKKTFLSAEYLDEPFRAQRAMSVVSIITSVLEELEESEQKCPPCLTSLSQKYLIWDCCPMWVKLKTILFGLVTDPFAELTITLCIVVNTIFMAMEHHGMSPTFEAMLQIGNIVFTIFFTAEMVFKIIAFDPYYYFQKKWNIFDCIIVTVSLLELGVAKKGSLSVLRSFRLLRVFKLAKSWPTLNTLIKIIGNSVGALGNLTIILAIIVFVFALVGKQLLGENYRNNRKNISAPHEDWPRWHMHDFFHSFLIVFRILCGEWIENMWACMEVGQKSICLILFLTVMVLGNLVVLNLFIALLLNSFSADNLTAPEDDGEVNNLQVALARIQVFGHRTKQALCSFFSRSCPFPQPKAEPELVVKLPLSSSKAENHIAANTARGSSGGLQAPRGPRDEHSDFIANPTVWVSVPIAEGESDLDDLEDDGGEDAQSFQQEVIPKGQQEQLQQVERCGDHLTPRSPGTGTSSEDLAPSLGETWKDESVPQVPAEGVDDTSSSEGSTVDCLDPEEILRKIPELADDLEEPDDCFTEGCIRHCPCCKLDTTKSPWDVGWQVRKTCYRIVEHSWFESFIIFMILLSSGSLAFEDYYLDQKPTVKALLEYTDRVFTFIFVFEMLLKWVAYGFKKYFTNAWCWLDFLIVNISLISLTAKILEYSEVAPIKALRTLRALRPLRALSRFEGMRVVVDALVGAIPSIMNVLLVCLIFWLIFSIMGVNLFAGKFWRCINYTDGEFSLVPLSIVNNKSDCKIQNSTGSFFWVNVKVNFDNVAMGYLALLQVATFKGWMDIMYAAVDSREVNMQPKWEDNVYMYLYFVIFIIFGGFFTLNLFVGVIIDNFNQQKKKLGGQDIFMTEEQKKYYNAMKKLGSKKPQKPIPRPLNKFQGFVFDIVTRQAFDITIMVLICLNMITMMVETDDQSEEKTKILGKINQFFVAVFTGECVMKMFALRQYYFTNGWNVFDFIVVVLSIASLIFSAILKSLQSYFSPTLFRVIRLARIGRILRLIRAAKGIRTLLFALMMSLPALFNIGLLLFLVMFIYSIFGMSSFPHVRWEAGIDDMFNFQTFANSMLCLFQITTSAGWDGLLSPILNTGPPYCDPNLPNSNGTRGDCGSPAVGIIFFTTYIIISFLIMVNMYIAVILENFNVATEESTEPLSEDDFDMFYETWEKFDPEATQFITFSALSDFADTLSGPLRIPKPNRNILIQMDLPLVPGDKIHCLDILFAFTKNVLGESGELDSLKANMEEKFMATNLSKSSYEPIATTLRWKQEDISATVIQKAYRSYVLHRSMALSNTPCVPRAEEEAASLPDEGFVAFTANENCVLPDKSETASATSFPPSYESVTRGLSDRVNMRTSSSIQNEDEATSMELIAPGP

Compound	IC50 [nM]
NS(=O)(=O)c1cc(NC(=O)c2cc(C(F)(F)F)cnc2N2CCCC(CO)C2)ccn1 (centres unmarked) [Example 7, 2-(3-(hydroxymethyl)piperidin-1-yl)-N-(2-sulfamoylpyridin-4-yl)-5-(trifluoromethyl)nicotinamide]	2830
NC(=O)c1cncc(NC(=O)c2cc(C(F)(F)F)cnc2N2CCCCCC2)c1 [Example 8, 2-(azepan-1-yl)-N-(5-carbamoylpyridin-3-yl)-5-(trifluoromethyl)nicotinamide]	2350
Cc1ccc(C(=O)Nc2cncc(S(N)(=O)=O)c2)c(N2CCC(F)(F)CC2)n1 [Example 9, 2-(4,4-difluoro-1-piperidyl)-6-methyl-N-(5-sulfamoyl-3-pyridyl)pyridine-3-carboxamide]	816
NS(=O)(=O)c1cncc(NC(=O)c2cc(Cl)cnc2N2CCC(F)(F)CC2)c1 [Example 10, 5-chloro-2-(4,4-difluoro-1-piperidyl)-N-(5-sulfamoyl-3-pyridyl)pyridine-3-carboxamide]	174
Cc1cc(Cl)nc(N2CCC(F)(F)CC2)c1C(=O)Nc1cncc(S(N)(=O)=O)c1 [Example 11, 6-chloro-2-(4,4-difluoropiperidin-1-yl)-4-methyl-N-(5-sulfamoylpyridin-3-yl)nicotinamide]	212
NS(=O)(=O)c1cc(NC(=O)c2cc(C3CC3)c(C3CC3)nc2N2CCC(F)(F)CC2)ccn1 [Example 12, 5,6-dicyclopropyl-2-(4,4-difluoropiperidin-1-yl)-N-(2-sulfamoylpyridin-4-yl)nicotinamide]	94
Cc1nc(N2CCC(F)(F)CC2)c(C(=O)Nc2ccnc(S(N)(=O)=O)c2)cc1C1CC1 [Example 14, 5-cyclopropyl-2-(4,4-difluoropiperidin-1-yl)-6-methyl-N-(2-sulfamoylpyridin-4-yl)nicotinamide]	45
NS(=O)(=O)c1cc(NC(=O)c2cc(C3CC3)c(OCC(F)(F)F)nc2N2CCC(F)(F)CC2)ccn1 [Example 20, 5-cyclopropyl-2-(4,4-difluoropiperidin-1-yl)-N-(2-sulfamoylpyridin-4-yl)-6-(2,2,2-trifluoroethoxy)nicotinamide]	67
NS(=O)(=O)c1cc(NC(=O)c2ccc(C3CCC3)nc2N2CCCC(F)(F)CC2)ccn1 [Example 24, 6-cyclobutyl-2-(4,4-difluoroazepan-1-yl)-N-(2-sulfamoylpyridin-4-yl)nicotinamide]	2.1
Cc1nc(N2CCCC(F)(F)CC2)c(C(=O)Nc2ccnc(S(N)(=O)=O)c2)cc1C#N [Example 25, 5-cyano-2-(4,4-difluoroazepan-1-yl)-6-methyl-N-(2-sulfamoylpyridin-4-yl)nicotinamide]	5.4
NS(=O)(=O)c1cc(NC(=O)c2cccnc2N2CCC(F)(F)CC2)ccn1 [Example 26, 2-(4,4-difluoropiperidin-1-yl)-N-(2-sulfamoylpyridin-4-yl)nicotinamide]	1860
O=C(Nc1cc[nH]c(=O)c1)c1cc(Cl)c(C2CC2)nc1N1CCCC(F)(F)CC1 [Example 27, 5-chloro-6-cyclopropyl-2-(4,4-difluoroazepan-1-yl)-N-(2-oxo-1,2-dihydropyridin-4-yl)nicotinamide]	31
NS(=O)(=O)c1cc(NC(=O)c2cc(C(F)(F)F)cnc2N2CCC(F)(F)CCC2=O)ccn1 [Example 28, 2-(5,5-Difluoro-2-oxoazepan-1-yl)-N-(2-sulfamoylpyridin-4-yl)-5-(trifluoromethyl)nicotinamide]	1300
NS(=O)(=O)c1cc(NC(=O)c2cc(C(F)(F)F)cnc2N2CCC(Cl)(Cl)CC2)ccn1 [Example 29, 2-(4,4-Dichloropiperidin-1-yl)-N-(2-sulfamoylpyridin-4-yl)-5-(trifluoromethyl)nicotinamide]	31
CS(=O)(=O)n1cc(NC(=O)c2cc(C(F)(F)F)cnc2N2CCCC(F)(F)CC2)c2cccnc21 [Example 30, 2-(4,4-difluoroazepan-1-yl)-N-[1-(methylsulfonyl)-1H-pyrrolo[2,3-b]pyridin-3-yl]-5-(trifluoromethyl)pyridine-3-carboxamide]	4
Cc1nc(N2CCCC(F)(F)CC2)c(C(=O)Nc2cnn(S(C)(=O)=O)c2)cc1Cl [Example 31, 5-chloro-2-(4,4-difluoroazepan-1-yl)-6-methyl-N-[1-(methylsulfonyl)-1H-pyrazol-4-yl]pyridine-3-carboxamide]	4.1
Cc1nc(N2CCCC(F)(F)CC2)c(C(=O)Nc2cnn(S(C)(=O)=O)c2)c(C)c1Cl [Example 32, 5-chloro-2-(4,4-difluoroazepan-1-yl)-4,6-dimethyl-N-[1-(methylsulfonyl)-1H-pyrazol-4-yl]pyridine-3-carboxamide]	4.3
Cc1nc(N2CCCC(F)(F)CC2)c(C(=O)Nc2cnn(S(=O)(=O)CCN)c2)cc1Cl [Example 33, N-{1-[(2-aminoethyl)sulfonyl]-1H-pyrazol-4-yl}-5-chloro-2-(4,4-difluoroazepan-1-yl)-6-methylpyridine-3-carboxamide]	35
CS(=O)(=O)n1nc(NC(=O)c2cc(C(F)(F)F)cnc2N2CCCC(F)(F)CC2)c2ccccc21 [Example 34, 2-(4,4-difluoroazepan-1-yl)-N-[1-(methylsulfonyl)-1H-indazol-3-yl]-5-(trifluoromethyl)pyridine-3-carboxamide]	50
CS(=O)(=O)n1ncc(NC(=O)c2cc(C(F)(F)F)cnc2N2CCCC(F)(F)CC2)c1C1CC1 [Example 37, N-[5-cyclopropyl-1-(methylsulfonyl)-1H-pyrazol-4-yl]-2-(4,4-difluoroazepan-1-yl)-5-(trifluoromethyl)pyridin-3-carboxamide]	1250
NS(=O)(=O)c1cc(NC(=O)c2cnc(C3CC3)nc2N2CCCC(F)(F)CC2)ccn1 [Example 38, 2-cyclopropyl-4-(4,4-difluoroazepan-1-yl)-N-(2-sulfamoylpyridin-4-yl)pyrimidine-5-carboxamide]	24
NS(=O)(=O)c1cc(NC(=O)c2cc(C3CC3)nnc2N2CCCC(F)(F)CC2)ccn1 [Example 39, 6-cyclopropyl-3-(4,4-difluoroazepan-1-yl)-N-(2-sulfamoylpyridin-4-yl)pyridazine-4-carboxamide]	441
Cc1ccc(C(=O)Nc2ccnc(S(N)(=O)=O)c2)c(N2CCCC(F)(F)C(F)C2)n1 (centres unmarked) [Example 40, 6-methyl-N-(2-sulfamoylpyridin-4-yl)-2-(3,4,4-trifluoroazepan-1-yl)nicotinamide]	4.1
COc1nc(N2CCCC(F)(F)CC2)c(C(=O)Nc2ccnc(S(N)(=O)=O)c2)cc1Cl [Example 41, 5-chloro-2-(4,4-difluoroazepan-1-yl)-6-methoxy-N-(2-sulfamoylpyridin-4-yl)pyridine-3-carboxamide]	5.1
COc1nc(N2CCCC(F)(F)CC2)c(C(=O)Nc2ccnc(S(=O)(=O)NC(C)(C)C)c2)cc1Cl [Example 42, N-[2-(tert-butylsulfamoyl)pyridin-4-yl]-5-chloro-2-(4,4-difluoroazepan-1-yl)-6-methoxypyridine-3-carboxamide]	341
N#Cc1cc(C(=O)Nc2ccnc(S(N)(=O)=O)c2)c(N2CCC(F)(F)CC2)nc1C(F)(F)F [Example 43, 5-cyano-2-(4,4-difluoropiperidin-1-yl)-N-(2-sulfamoylpyridin-4-yl)-6-(trifluoromethyl)nicotinamide]	37
